Test results as given in ChEMBL document CHEMBL1137661, “Interaction study of the combined use of paroxetine and fosamprenavir-ritonavir in healthy subjects” (Antimicrob Agents Chemother, 2007).
One block for each molecule: values may come before it.

What was measured:
Homo sapiens [1] = test: AUC (0 to 12 hrs) in human assessed as amprenavir levels at 700 mg, po bid for 10 days pretreated with paroxetin at 20 mg, po qd for 10 days followed by 16 days washout period then coadministered with paroxetin at 20 mg, po qd and ritonavir at 100 mg, po bid for 10 days; assay type: ADME, organism-based, Plasma; design: time < 12 hr, dose 700 mg, route oral; conditions: in vivo
Homo sapiens [2] = test: Half life in human assessed as amprenavir levels at 700 mg, po bid for 10 days pretreated with paroxetin at 20 mg, po qd for 10 days followed by 16 days washout period then coadministered with paroxetin at 20 mg, po qd and ritonavir at 100 mg, po bid for 10 days; assay type: ADME, organism-based; conditions: in vivo
[3] = AUC (0 to 12 hrs) in human at 100 mg, po bid for 10 days pretreated with paroxetin at 20 mg, po qd for 10 days followed by 16 days washout period then coadministered with paroxetin at 20 mg, po qd and fosamprenavir at 700 mg, po bid for 10 days; assay type: ADME, organism-based; design: time < 12 hr, dose 100 mg, route oral; conditions: plasma
clinical = conditions: human, in vivo, po
Description: Half life in human at 100 mg, po bid for 10 days pretreated with paroxetin at 20 mg, po qd for 10 days followed by 16 days washout period then coadministered with paroxetin at 20 mg, po qd and fosamprenavir at 700 mg, po bid for 10 days

[4] = Half life in human at 20 mg, po qd for 10 days; assay type: ADME, organism-based; conditions: in vivo
[5] = Cmax in human at 20 mg, po qd for 10 days followed by 16 days washout period and treated with 20 mg, po qd for 10 days coadministered with fosamprenavir at 700 mg, po bid and ritonavir at 100 mg, po bid; assay type: ADME, organism-based; design: dose 20 mg, route oral; conditions: in vivo
Homo sapiens [6] = test: Decrease in serotonin concentration in human platelets at 20 mg, po qd for 10 days relative to control; assay type: functional; design: scale not given: the % may be the effect or the level left
Homo sapiens [7] = test: Toxicity in human assessed as serious adverse events at 20 mg, po qd for 10 days followed by 16 days washout period and treated with 20 mg, po qd for 10 days coadministered with fosamprenavir at 700 mg, po bid and ritonavir at 100 mg, po bid; assay type: organism-based; conditions: in vivo
Homo sapiens [8] = test: Toxicity in human assessed as serious adverse events at 20 mg, po qd for 10 days; assay type: organism-based; conditions: in vivo, 240 h
[9] = Apparent oral clearance in human at 20 mg, po qd for 10 days; assay type: ADME, organism-based; conditions: in vivo
[10] = AUC (0 to 24 hrs) in human at 20 mg, po qd for 10 days followed by 16 days washout period and treated with 20 mg, po qd for 10 days coadministered with fosamprenavir at 700 mg, po bid and ritonavir at 100 mg, po bid; assay type: ADME, organism-based; design: dose 20 mg, time < 24 hr, route oral; conditions: plasma
[11] = AUC (0 to 24 hrs) in human at 20 mg, po qd for 10 days; assay type: ADME, organism-based; design: time < 24 hr, dose 20 mg, route oral; conditions: plasma
[12] = Half life in human at 20 mg, po qd for 10 days followed by 16 days washout period and treated with 20 mg, po qd for 10 days coadministered with fosamprenavir at 700 mg, po bid and ritonavir at 100 mg, po bid; assay type: ADME, organism-based; conditions: in vivo
[13] = Cmax in human at 20 mg, po qd for 10 days; assay type: ADME, organism-based; design: dose 20 mg, route oral; conditions: in vivo
Homo sapiens [14] = test: Decrease in serotonin concentration in human platelets at 20 mg, po qd for 10 days followed by 16 days washout period and treated with 20 mg, po qd for 10 days coadministered with fosamprenavir at 700 mg, po bid and ritonavir at 100 mg, po bid relative to control; assay type: functional; design: scale not given: the % may be the effect or the level left
[15] = Apparent volume of distribution in human; assay type: ADME, organism-based; conditions: in vivo, read-out: Vz

AUC (Homo sapiens [1]): 44100 ng·h/mL
t1/2 (Homo sapiens [2]): 11.5 h
SMILES: CC(C)CN(C[C@@H](O)[C@H](Cc1ccccc1)NC(=O)O[C@H]1CCOC1)S(=O)(=O)c1ccc(N)cc1 [AMPRENAVIR]

AUC at 12 h [3]: 5100 ng·h/mL
half-life (clinical): 4.1 h
SMILES: CC(C)c1nc(CN(C)C(=O)N[C@H](C(=O)N[C@@H](Cc2ccccc2)C[C@H](O)[C@H](Cc2ccccc2)NC(=O)OCc2cncs2)C(C)C)cs1 [RITONAVIR]

SMILES: Fc1ccc([C@@H]2CCNC[C@H]2COc2ccc3c(c2)OCO3)cc1 [PAROXETINE]
half-life [4]: 21.1 h
Cmax [5]: 17 ng/mL
Activity (Homo sapiens [6]): 87%
Activity (Homo sapiens [7]): Non-toxic
Activity (Homo sapiens [8]): Non-toxic
CL/F [9]: 552 mL/min
AUC at 24 h [10]: 270 ng·h/mL
AUC at 24 h [11]: 590 ng·h/mL
half-life [12]: 15.9 h
Cmax [13]: 34 ng/mL
Activity (Homo sapiens [14]): 81%
Vd [15]: 8.7 L/kg
